Reference: PubChem BioAssay AID1745864

Target: Excitatory amino acid transporter 1 (Homo sapiens) (UniProt P43003)
Assay: SLC1A3 amino acid substrate potency, dose response, HEK293 JumpIn overexpressing cells, membrane potential dye (AID 1745864)
Settings: HEK293 JumpIn SLC1A3 OE, FLIPR membrane potential

Sequence of Excitatory amino acid transporter 1 (Homo sapiens) (P43003 whole entry, looked up): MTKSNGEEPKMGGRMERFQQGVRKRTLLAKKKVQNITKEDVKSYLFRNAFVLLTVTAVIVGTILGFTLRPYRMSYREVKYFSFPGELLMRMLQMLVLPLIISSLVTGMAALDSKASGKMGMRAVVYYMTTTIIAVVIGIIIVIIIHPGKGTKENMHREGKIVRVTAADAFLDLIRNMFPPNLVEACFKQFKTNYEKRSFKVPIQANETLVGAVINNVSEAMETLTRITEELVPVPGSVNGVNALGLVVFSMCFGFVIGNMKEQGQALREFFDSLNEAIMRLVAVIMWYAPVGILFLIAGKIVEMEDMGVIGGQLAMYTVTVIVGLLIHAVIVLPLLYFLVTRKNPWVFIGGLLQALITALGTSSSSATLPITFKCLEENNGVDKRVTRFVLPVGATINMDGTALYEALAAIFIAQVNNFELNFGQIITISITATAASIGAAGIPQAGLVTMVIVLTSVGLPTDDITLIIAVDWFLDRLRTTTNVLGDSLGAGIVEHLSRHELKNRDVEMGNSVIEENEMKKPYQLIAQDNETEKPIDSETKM

## N[C@@H](CS)C(=O)O
  EC50: 376 µM
